This is an account of results in patent US6069150A, “Use of derivatives of tetrahydro-beta-carbolines as antimetastatic agents” (F. Hoffman-La Roche AG, priority 1996, dated 2000).

Read-outs that look alike come from different tables or passages of the source.

For assay [1], the target named is T1, MMP8 (human neutrophil collagenase) (Homo sapiens, UniProt P22894).
T1 construct: by means of the catalytic domain of MMP8
In words: in vitro test of inhibition of MMP8 (human neutrophil collagenase), fluorescent substrate degradation by catalytic domain of MMP8. Particulars: for inhibition at 0.1 µg/mL: conc. 0.1 μg/ml. Format: biochemical. From the text: The compounds of the present invention have been tested in a pharmacological "in vitro" test of inhibition of MMP8 (human neutrophil collagenase). Said test provides for the determination via fluorescence of the inhibition of the degradation of a fluorescent substrate (DNP-Pro-Leu-Gly-Leu-Trp-Ala-D-Arg-NH2, M1855 Bachem) by means of the catalytic domain of MMP8.
1) DNP-substrate=DNP-Pro-Leu-Gly-Leu-Trp-Ala-D-Arg-NH2 (M1855 Bachem), M.W. 977.1 g/mol, concentration 25 (μM in DMSO; 2) measurement buffer=50 mM TRIS/100 mM NaCl/10 mM CaCl2.2H2 O, adjusted at pH 7.6 with hydrochloric acid. 3) Enzyme=catalytic domain of MMP8 (92 Kda), concentration 0.055 mg/ml in TRIS buffer. Substrate and enzyme are maintained at 0° C. with ice bath.
Total volume=1 ml of solution kept under stirring in a cuvette.
0.01 ml of inhibitor (10 (g/ml).
It is measured the fluorescence at 346 nm both of the control solution (without inhibitor) and of the solution containing the inhibitor. The inhibition of the catalytic activity of MMP8 results in the decrease in the DNP-substrate lysis, with related decrease in the fluorescence of the solution.
The percentage of inhibition is expressed by the following formula:
% Inhibition=100-(rel. unit/timewith inhibitor /rel.
By repeating the experiment at different concentrations of inhibitor it is possible to determine the IC50 value.

Assay [2] concerns human fibrosarcoma HT1080 cells. Nature of the assay: test of chemoinvasion (HT1080 cells through Type IV collagen coated Transwell filters). Format: cell-based. As to the method:
The compounds of the present invention have also shown activity in an "[…]" test of chemoinvasion. In the test of chemoinvasion the Costar Transwell chambers for cell culture (diameter: 6.5 mm; pore size: 8 μm) are coated with 100 μl of Type IV collagen (diluted solution 50 μg/ml, then evaporation overnight). With the same procedure the chambers are coated with a second layer of Type IV collagen (100 μl of solution at concentration 50 μg/ml). Before use, the chambers are rinsed twice with sterile water and incubated for about 1 hour at 37° C. in a serum-free medium (DMEM).
The human fibrosarcoma HT1080 cells are harvested by trypsin-EDTA treatment, washed with DMEM+10% FCS and incubated for at least 30 minutes at 37° C. in the same medium. The cells are then washed with serum-free DMEM and resuspended in serum-free DMEM added with 0.1% BSA (fraction V), counted and diluted to obtain a final density of 3×10^5 cell/ml. […]
Incubated filters are then washed with PBS, the cells are fixed 15 min in 4% paraformaldehyde, permeabilized in methanol (10 minutes, -20° C.) and stained with May-Grunwald-Giemsa. Cells which adhere to the top of the filters are removed with a cotton swab, filters are detached from the bottom of the chambers and analyzed with microscope to determine the number of cells on the lower side of the filters. […]

The mark [3] stands for this setting: MMP8 catalytic domain, DNP-substrate, fluorescence at 346 nm, read-out: IC50 (converted).

T1 sequence (P22894 100-262 limits assumed): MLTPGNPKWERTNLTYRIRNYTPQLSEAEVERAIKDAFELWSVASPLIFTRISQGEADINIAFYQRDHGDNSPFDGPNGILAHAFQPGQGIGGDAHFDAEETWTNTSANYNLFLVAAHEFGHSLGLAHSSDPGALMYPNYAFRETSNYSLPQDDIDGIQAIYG

The IC50 is the midpoint of a concentration-inhibition curve. The term inhibition denotes the drop in the measured response relative to a control, in per cent. In assay [1], `COc1ccc2[nH]c3c(c2c1)CCNC3` [6-methoxy-1,2,3,4-tetrahydronorharmane] showed an IC50 of 297 nM and an inhibition at 0.1 µg/mL of 100%.

Turning to `COc1ccc2[nH]c3c(c2c1)CCNC3C(=O)O` (centres unmarked) [6-methoxy-1,2,3,4-tetrahydronorharman-1-carboxylic acid], the IC50 in assay [2] (HT-1080, 24 h + 24 h) was 200 nM; in assay [1] (setting [3]), 203 nM. In addition, in assay [2] (HT-1080, conc. 10^-7 M, 24 h + 24 h), the inhibition at 0.1 µM turned out to be 56.5%. In assay [1] (conc. 10 μg/ml), this compound registered an inhibition at 10 µg/mL of 100%.

For the compound `O=C(O)C1Cc2c([nH]c3ccccc23)CN1` (centres unmarked) [1,2,3,4-tetrahydronorharman-3-carboxylic acid], the half-inhibitory concentration (IC50) in assay [1] (setting [3]) was 324 nM. The compound further returned an inhibition at 0.1 µg/mL in assay [1] of 100%.
